Reference: ChEMBL document CHEMBL5625243, “Computational methods to analyze and predict the binding mode of inhibitors targeting both human and mushroom tyrosinase” (Eur J Med Chem, 2023)
Active and inactive are the calls of the source. No cut-off for these calls is given here.

How the values were obtained:
[1] = molecular target: T1, Tyrosinase (Homo sapiens, UniProt P14679); assay: Inhibition of human tyrosinase using L-DOPA as substrate by spectrophotometer analysis
T1 sequence (P14679 whole entry): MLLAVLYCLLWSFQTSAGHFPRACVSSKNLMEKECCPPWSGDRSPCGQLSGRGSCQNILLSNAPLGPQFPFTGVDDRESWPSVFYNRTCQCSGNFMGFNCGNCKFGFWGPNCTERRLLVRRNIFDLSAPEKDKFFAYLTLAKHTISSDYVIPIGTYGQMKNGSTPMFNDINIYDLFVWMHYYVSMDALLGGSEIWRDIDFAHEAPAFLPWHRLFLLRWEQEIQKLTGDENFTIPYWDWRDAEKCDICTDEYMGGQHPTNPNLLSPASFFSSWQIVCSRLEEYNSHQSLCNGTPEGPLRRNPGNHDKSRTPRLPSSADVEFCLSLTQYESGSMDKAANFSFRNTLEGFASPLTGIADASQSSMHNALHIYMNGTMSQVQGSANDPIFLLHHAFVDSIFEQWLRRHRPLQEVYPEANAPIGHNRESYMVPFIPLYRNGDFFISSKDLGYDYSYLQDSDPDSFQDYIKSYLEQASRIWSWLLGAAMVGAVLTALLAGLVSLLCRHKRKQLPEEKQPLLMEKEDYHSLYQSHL

[2] = molecular target: T2, Mushroom tyrosinase (Agaricus bisporus, UniProt O42713+Q00024+C7FF04+C7FF05); assay: Inhibition of mushroom tyrosinase using L-DOPA as substrate; assay type: protein assay
[3] = molecular target: T3, Tyrosinase (Homo sapiens) (UniProt P14679); assay: Competitive inhibition of human tyrosinase using L-DOPA substrate upto 2.08 uM by Lineweaver-Burk plot analysis
T3 sequence (whole entry): T1 sequence (P14679 whole entry)

[4] = molecular target: T1, Tyrosinase; assay: Binding affinity to human tyrosinase using l-DOPA as substrate assessed as inhibition constant by Michaelis-Menten plot analysis
[5] = molecular target: T3, Tyrosinase (Homo sapiens); assay: Binding affinity to human Tyrosinase assessed as gibbs free energy change by MM-GBSA method
[6] = molecular target: Mushroom tyrosinase (Agaricus bisporus) (UniProt O42713+Q00024+C7FF04+C7FF05); assay: Binding affinity to mushroom tyrosinase assessed as gibbs free energy change by MM-GBSA method; assay type: protein assay
[7] = molecular target: T2, Mushroom tyrosinase; assay: Inhibition of mushroom tyrosinase using L-DOPA as substrate by spectrophotometer analysis; assay type: protein assay

SMILES | IC50 [1] [µM] | IC50 [2] [µM] | inhibition [3] | Ki [4] [nM] | deltaG [5] [kcal/mol] | deltaG [6] [kcal/mol] | IC50 [7] [µM]
COc1ccccc1C(=O)N1CCN(c2ccc(O)cc2)CC1 | 5.4 | 3.52 | Active | 1020 |  |  | 
CC(C)C(=O)Nc1nc(-c2ccc(O)cc2O)cs1 | 3.8 |  |  | 920 | -14.8 | 3.34 | 108
O=C(CN1CCC(Cc2ccccc2)CC1)N1CCN(c2ccc(O)cc2)CC1 | 1100 |  |  |  | 0 | -4.54 | 
